Data as given in patent US20250388625A1, “CYCLOSPORINE ANALOGUES” (priority 2022, published 2025).
Read-outs that look alike come from different tables or passages of the source.

Assays:
CypA = CypA (Homo sapiens, UniProt P62937); assay: biochemical; assay type: binding; details: for Max Response / Kd: SPR, Biacore, 25° C.
Description: CypA binding was carried out using surface plasmon resonance as described (Warne J Biol Chem. 2016 Feb. 26; 291 (9): 4356-73).
Surface Plasmon Resonance (SPR) using Biacore at 25° C. was used to study the binding interactions between CypA and various inhibitors. The SPR binding experiments used a duel flow cell with a blank reference. The sensor chip surface was initially activated with a mixture of N-hydroxysuccinimide (NHS,) and N-(3-dimethyl-aminopropyl)-N′-ethyl-carbodiimide hydrochloride (EDC) for 420 s with a flow rate of 10 μl/min on blank flow cell 1 in addition to flow cell 2.
CypA protein was diluted to a concentration of 50 μg/mL by the addition of 10 mM sodium acetate pH 5 solution before immobilisation and covalent attachment to the carboxy-methylated dextran matrix of the Biacore CM5 sensor chip. CypA was run against the surface for 420 s and then any unreacted surface was quenched by 420 s of ethanolamine.
Immobilisations were carried out in the presence of JW47 (Warne J Biol Chem. 2016 Feb. 26; 291 (9): 4356-73).
No regeneration stage was required if the dissociation time was sufficient.
Solvent correction was carried out in each experiment using 8 different DMSO dilutions as reference: 2.8%, 2.6%, 2.4%, 2.2%, 2%, 1.8%, 1.6% & 1.5%.
A 50/50 mixture of buffer and DMSO is required to include a wash cycle in the experiment.
50 μl of CypA (0.1 mg/ml)+40 μL of 10 mM sodium acetate pH5+10 μl of 600 μM of JW47 DMSO solution. This mixture was allowed to stand at room temperature for 10 mins prior to set-up in the injection rack.

IFITM3 [1] = target: T1, IFITM3 (Homo sapiens, UniProt Q01628); assay: cell-based or functional assay
cyclophilin A (CypA) = cyclophilin A (CypA) (UniProt P62937); assay: SPR (Biacore, 25 C), CypA amine-coupled to CM5 chip, compound as analyte
IFITM3 [2] = target: T1, IFITM3; assay type: cell-based; design: treated with 10 ng/ml type 1 interferon (IFNβ) overnight to induce IFITM3 expression; endogenous in cells; host or cells: THP-1 (human monocytic cell line), IFNβ-treated
Human stem cells (HSC) = assay type: cell-based
IFITM3 [3] = target: T1, IFITM3; assay type: cell-based; design: treated with 10 ng/ml type 1 interferon (IFNβ) overnight to induce IFITM3 expression; endogenous in cells; host or cells: THP-1 (human monocytic cell line), IFNβ-treated; remark: listed apart in the source

T1 sequence (Q01628 whole entry): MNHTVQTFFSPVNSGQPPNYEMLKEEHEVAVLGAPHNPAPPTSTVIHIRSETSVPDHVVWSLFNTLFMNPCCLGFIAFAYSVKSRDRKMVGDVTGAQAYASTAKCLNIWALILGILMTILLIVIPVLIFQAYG
Sequence of CypA (P62937 whole entry): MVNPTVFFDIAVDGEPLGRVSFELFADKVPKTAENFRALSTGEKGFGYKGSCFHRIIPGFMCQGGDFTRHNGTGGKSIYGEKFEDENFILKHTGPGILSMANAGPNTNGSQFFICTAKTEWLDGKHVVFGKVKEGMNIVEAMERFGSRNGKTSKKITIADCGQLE
Sequence of cyclophilin A (CypA) (P62937 whole entry): as above

Molecule | koff (CypA) [s⁻¹] | kon (CypA) [M⁻¹ s⁻¹] | Max Response (CypA) [RU] | Kd (CypA; read-out: Kd (Affinity)) [µM] | Kd (CypA; read-out: Kd (Kinetics)) [µM] | also measured
CC[C@@H]1NC(=O)[C@H]([C@H](O)[C@H](C)CC=Cc2ccc(C(=O)OCCn3ccnc3)cc2C(F)(F)F)N(C)C(=O)[C@H](C(C)C)N(C)C(=O)[C@H](CC(C)C)N(C)C(=O)[C@H](CC(C)C)N(C)C(=O)[C@@H](C)NC(=O)[C@H](C)NC(=O)[C@H](CC(C)C)N(C)C(=O)[C@H](C(C)C)NC(=O)[C@H](CC(C)C)N(C)C(=O)CN(C)C1=O [BG190] | 0.0138 | 4800 | 13.2 | 6.07 |  | 
CC[C@@H]1NC(=O)[C@H]([C@H](O)[C@H](C)CC=Cc2ccc(C(=O)OCCn3ccnc3)cc2OC(C)C)N(C)C(=O)[C@H](C(C)C)N(C)C(=O)[C@H](CC(C)C)N(C)C(=O)[C@H](CC(C)C)N(C)C(=O)[C@@H](C)NC(=O)[C@H](C)NC(=O)[C@H](CC(C)C)N(C)C(=O)[C@H](C(C)C)NC(=O)[C@H](CC(C)C)N(C)C(=O)CN(C)C1=O [BG185] | 0.584 | 2250 | 14.5 | 2.92 | 259 | 
CC[C@@H]1NC(=O)[C@H]([C@H](O)[C@H](C)CC=Cc2ccc(C(=O)OCCn3ccnc3)cc2C)N(C)C(=O)[C@H](C(C)C)N(C)C(=O)[C@H](CC(C)C)N(C)C(=O)[C@H](CC(C)C)N(C)C(=O)[C@@H](C)NC(=O)[C@H](C)NC(=O)[C@H](CC(C)C)N(C)C(=O)[C@H](C(C)C)NC(=O)[C@H](CC(C)C)N(C)C(=O)CN(C)C1=O [BG150] | 0.0425 | 11100 | 18.7 | 1.31 | 3.84 | 
CC[C@@H]1NC(=O)[C@H]([C@H](O)[C@H](C)CC=Cc2c(OC)cc(C(=O)OCCn3ccnc3)cc2OC)N(C)C(=O)[C@H](C(C)C)N(C)C(=O)[C@H](CC(C)C)N(C)C(=O)[C@H](CC(C)C)N(C)C(=O)[C@@H](C)NC(=O)[C@H](C)NC(=O)[C@H](CC(C)C)N(C)C(=O)[C@H](C(C)C)NC(=O)[C@H](CC(C)C)N(C)C(=O)CN(C)C1=O [BG186, 2-(1H-imidazol-1-yl)ethyl 4-((4R,5R)-5-((2S,5S,11S,14S,17S,20S,23R,26S,29S,32S)-5-ethyl-11,17,26,29-tetraisobutyl-14,32-diisopropyl-1,7,10,16,20,23,25,28,31-nonamethyl-3,6,9,12,15,18,21,24,27,30,33-undecaoxo-1,4,7,10,13,16,19,22,25,28,31-undecaazacyclotritriacontan-2-yl)-5-hydroxy-4-methylpent-1-en-1-yl)-3,5-dimethoxybenzoate] | 0.422 | 14600 | 7.6 |  |  | Kd (CypA; Kd (Affinity)): 4.76 µM; Kd (CypA; Kd (Kinetics)): 28.9 µM
CCc1cc(C(=O)OCCn2ccnc2)ccc1C=CC[C@@H](C)[C@@H](O)[C@H]1C(=O)N[C@@H](CC)C(=O)N(C)CC(=O)N(C)[C@@H](CC(C)C)C(=O)N[C@@H](C(C)C)C(=O)N(C)[C@@H](CC(C)C)C(=O)N[C@@H](C)C(=O)N[C@H](C)C(=O)N(C)[C@@H](CC(C)C)C(=O)N(C)[C@@H](CC(C)C)C(=O)N(C)[C@@H](C(C)C)C(=O)N1C [BG149] |  |  | 4.8 |  |  | 
Cyclosporine A (CsA) (peptide) |  |  |  |  |  | fold rescue of HIV-GFP infection compared to IFN-inhibited baseline, THP-1 cells, compound at 5 µM (IFITM3 [1]): 9.9 fold; Max Response (cyclophilin A (CypA)): 40 RU
CC[C@@H]1NC(=O)[C@H]([C@H](O)[C@H](C)CC=Cc2ccc(C(=O)OCCn3ccnc3)cc2OC)N(C)C(=O)[C@H](C(C)C)N(C)C(=O)[C@H](CC(C)C)N(C)C(=O)[C@H](CC(C)C)N(C)C(=O)[C@@H](C)NC(=O)[C@H](C)NC(=O)[C@H](CC(C)C)N(C)C(=O)[C@H](C(C)C)NC(=O)[C@H](CC(C)C)N(C)C(=O)CN(C)C1=O [BG181] | 0.228 | 6360 | 9.8 | 2.66 | 35.9 | 
CC[C@@H]1NC(=O)[C@H]([C@H](O)[C@H](C)C/C=C/CCCn2ccnc2)N(C)C(=O)C(C(C)C)N(C)C(=O)[C@H](CC(C)C)N(C)C(=O)[C@H](CC(C)C)N(C)C(=O)[C@@H](C)NC(=O)[C@H](C)NC(=O)[C@H](CC(C)C)N(C)C(=O)[C@H](C(C)C)NC(=O)[C@H](CC(C)C)N(C)C(=O)CN(C)C1=O (stereo partly shown) [JW-115, reference compound] |  |  |  |  |  | fold rescue compared to inhibited baseline (IFITM3 [2]): 14.2 fold
C/C=C/C[C@@H](C)[C@@H](O)[C@H]1C(=O)N[C@@H](CC)C(=O)N(C)CC(=O)N(C)[C@@H](CC(C)C)C(=O)N[C@@H](C(C)C)C(=O)N(C)[C@@H](CC(C)C)C(=O)N[C@@H](C)C(=O)N[C@H](C)C(=O)N(C)[C@@H](CC(C)C)C(=O)N(C)[C@@H](CC(C)C)C(=O)N(C)[C@H](C(C)C)C(=O)N1C [CsH, Cyclosporine H, reference compound] |  |  |  |  |  | transduction enhancement (% infected human stem cells), first donor (Human stem cells (HSC)): achieves good enhancement but at higher concentrations; rescue of infection from the antiviral effect of IFN (IFITM3 [3]): rescue infection from the antiviral effect of IFN
Cyclosporine H (CsH) (peptide) |  |  |  |  |  | fold rescue of HIV-GFP infection compared to IFN-inhibited baseline, THP-1 cells, compound at 5 µM (IFITM3 [1]): 24.6 fold
